{"source": "patent US6906007B2", "about": "“Phenyl-substituted 5,6-dihydropyrone derivatives for use as pesticides and herbicides” (Bayer CropScience AG, priority 2000, dated 2005)", "type_in_all_cases": "in vivo", "key": {"[1]": {"tested_on": "Meloidogyne incognita", "assay": "Meloidogyne test (Example A)", "conditions": "20 ppm active compound, gall formation on lettuce roots", "experimental": "(§1) Meloidogyne Test Solvent: 30 parts by weight of dimethylformamide Emulsifier: 1 part by weight of alkylaryl polyglycol ether To produce a suitable preparation of active compound, 1 part by weight of active compound is mixed with the stated amounts of solvent and emulsifier, and the concentrate is diluted with water to the desired concentration. Containers are filled with sand, solution of active compound, Meloidogyne incognita egg/larvae suspension and lettuce seeds. The lettuce seeds germinate and the plants develop. On the roots, galls are formed. After the desired period of time, the nematicidal action in % is determined using the formation of galls as a measure. 100% means that no galls have been found; 0% means that the number of galls on the treated plants corresponds to that on the untreated control."}, "[2]": {"tested_on": "Sphaerotheca fuliginea", "assay": "Sphaerotheca test (cucumber)/protective", "conditions": "750 g/ha, protective, evaluation 7 days after inoculation", "experimental": "Sphaerotheca Test (Cucumber)/Protective\nSolvent: 48.8 parts by weight of N,N-dimethylformamide\nEmulsifier: 1.2 parts by weight of alkylaryl polyglycol ether\n(§2) To produce a suitable preparation of active compound, 1 part by weight of active compound is mixed with the stated amounts of solvent and emulsifier, and the concentrate is diluted with water to the desired concentration.\nTo test for protective activity, young cucumber plants are sprayed with the preparation of active compound at the stated application rate. 1 day after the treatment, the plants are inoculated with a spore suspension of Sphaerotheca fuliginea. The plants are then placed in a greenhouse at 70% relative atmospheric humidity and a temperature of 23° C.\nEvaluation is carried out 7 days after the inoculation. 0% means an efficacy which corresponds to that of the control, whereas an efficacy of 100% meais that no infection is observed."}, "[3]": {"tested_on": "larvae of the mustard beetle (Phaedon cochleariae)", "assay": "Phaedon larvae test", "conditions": "1000 ppm, cabbage leaves dipped", "experimental": "(§3) Phaedon larvae Test Solvent: 30 parts by weight of dimethylformamide Emulsifier: 1 part by weight of alkylaryl polyglycol ether To produce a suitable preparation of active compound, 1 part by weight of active compound is mixed with the stated amounts of solvent and emulsifier, and the concentrate is diluted with water to the desired concentration. Cabbage leaves (Brassica oleracea) are treated by being dipped into the preparation of active compound of the desired concentration and are populated with larvae of the mustard beetle (Phaedon cochleariae) while the leaves are still moist. After the desired period of time, the kill in % is determined. 100% means that all of the beetle larvae have been killed. 0% means that none of the beetle larvae has been killed. In this test, for example, the following compounds of the Preparation Examples show good activity."}, "[4]": {"tested_on": "caterpillars of the army worm (Spodoptera frugiperda)", "assay": "Spodoptera frugiperda test", "conditions": "1000 ppm, cabbage leaves dipped", "experimental": "as §3, with “Spodoptera frugiperda” for “Phaedon larvae”, “caterpillars” for “larvae”, “army worm (Spodoptera frugiperda)” for “mustard beetle (Phaedon cochleariae)”, “caterpillars” for “beetle larvae”, “killed; 0%.” for “killed. 0%”"}, "[5]": {"tested_on": "greenhouse red spider mite (Tetranychus urticae)", "assay": "Tetranychus test (OP-resistant/dip treatment)", "conditions": "bean plants dipped", "experimental": "Tetranychus Test (OP-Resistant/Dip Treatment)\nSolvent: 30 parts by weight of dimethylformamide\nEmulsifier: 1 part by weight of alkylaryl polyglycol ether\nas §2\nBean plants (Phaseolus vulgaris) which are heavily infested by all stages of the greenhouse red spider mite (Tetranychus urticae) are dipped into a preparation of active compound of the desired concentration.\nAfter the desired period of time, the effect in % is determined. 100% means that all of the spider mites have been killed, 0% means that none of the spider mites has been killed.\nIn this test, for example, the following compounds of the Preparation Examples show good activity."}, "[6]": {"tested_on": "peach aphid (Myzus persicae)", "assay": "Myzus test", "conditions": "1000 ppm, cabbage leaves dipped", "experimental": "Myzus Test Solvent: 30 parts by weight of dimethylformamide Emulsifier: 1 part by weight of alkylaryl polyglycol ether To produce a suitable preparation of active compound, 1 part by weight of active compound is mixed with the stated amounts of solvent and emulsifier, and the concentrate is diluted with water to the desired concentration. Cabbage leaves (Brassica oleracea) which are heavily infested by the peach aphid (Myzus persicae) are treated by being dipped into a preparation of active compound of the desired concentration. After the desired period of time, the kill in % is determined. 100% means that all of the aphids have been killed: 0% means that none of the aphids has been killed. In this test, for example, the following compounds of the Preparation Examples show good activity."}, "[7]": {"tested_on": "fruit tree red spider mite (Panonychus ulmi)", "assay": "Panonychus test", "conditions": "200 ppm, plum trees sprayed", "experimental": "Panonychus Test Solvent: 3 parts by weight of dimethylformamide Emulsifier: 1 part by weight of alkylaryl polyglycol ether To produce a suitable preparation of active compound, 1 part by weight of active compound is mixed with the stated amounts of solvent and emulsifier, and the concentrate is diluted with water to the desired concentration. Plum trees (Prunus domestica), of a height of approximately 30 cm, which are heavily infested by all stages of the fruit tree red spider mite (Panonychus ulmi) are sprayed with a preparation of active compound of the desired concentration. After the desired period of time, the effect in % is determined. 100% means that all of the spider mites have been killed: 0% means that none of the spider mites has been killed."}, "[8]": {"tested_on": "Meloidogyne incognita", "assay": "Meloidogyne test (Example G)", "conditions": "20 ppm; gall formation on lettuce roots", "experimental": "as §1, with “Test Solvent: 8 parts by” for “Test Solvent: 30 parts by”, “of active compound. Meloidogyne incognita” for “of active compound, Meloidogyne incognita”"}}}
{"compound": "Cc1cc(-c2ccc(Cl)cc2)cc(C)c1C1=C(OC(=O)C(C)C)C(C)(C)C(C)(C)OC1=O", "note": "[Ex. I-A-b-1]", "values": [{"measurement": "Kill rate in % after 14d", "setting": "[1]", "result": 100, "unit": "%"}]}
{"compound": "COC1OC(=O)C(c2ccc(Cl)cc2C)=C(OC(C)=O)C1(C)C", "note": "(centres unmarked) [Ex. I-A-b-3]", "values": [{"measurement": "Efficacy in %", "setting": "[2]", "result": 80, "unit": "%"}]}
{"compound": "Cc1ccc(-c2ccc(Cl)cc2)cc1C1=C(OC(=O)C(C)C)C(C)(C)C(C)(C)OC1=O", "note": "[Ex. I-A-b-10]", "values": [{"measurement": "Kill rate in % after 14d", "setting": "[1]", "result": 100, "unit": "%"}, {"measurement": "Kill rate in % after 7d", "setting": "[3]", "result": 100, "unit": "%"}, {"measurement": "Kill rate in % after 7d", "setting": "[4]", "result": 100, "unit": "%"}]}
{"compound": "Cc1cc(-c2ccc(Cl)cc2)cc(C)c1C1=C(OC(=O)C(C)C)C(C)(C)COC1=O", "note": "[Ex. I-A-b-11]", "values": [{"measurement": "Kill rate in % after 7d", "setting": "[3]", "result": 100, "unit": "%"}]}
{"compound": "Cc1ccc(-c2ccc(Cl)cc2)cc1C1=C(OC(=O)OC(C)C)C(C)(C)C(C)(C)OC1=O", "note": "[Ex. I-A-c-3]", "values": [{"measurement": "Kill rate in % after 7d", "setting": "[3]", "result": 90, "unit": "%"}, {"measurement": "Kill rate in % after 7d", "setting": "[5]; 0.01 ppm", "result": 100, "unit": "%"}]}
{"compound": "COC1OC(OC(C)=O)=C(c2ccc(Cl)cc2C)C(=O)C1(C)C", "note": "(centres unmarked) [Ex. I-B-b-13]", "values": [{"measurement": "Efficacy in %", "setting": "[2]", "result": 70, "unit": "%"}]}
{"compound": "Cc1cc(C)c(C2=C(OC(=O)C(C)C)OC(C)(C)C(C)(C)C2=O)c(C)c1", "note": "[Ex. I-B-b-16]", "values": [{"measurement": "Kill rate in % after 7d", "setting": "[5]; 100 ppm", "result": 100, "unit": "%"}]}
{"compound": "Cc1cc(C)c(C2=C(OC(=O)C(C)C)OCC(C)(C)C2=O)c(C)c1", "note": "[Ex. I-B-b-17]", "values": [{"measurement": "Kill rate in % after 14d", "setting": "[1]", "result": 90, "unit": "%"}, {"measurement": "Kill rate in % after 7d", "setting": "[5]; 100 ppm", "result": 100, "unit": "%"}]}
{"compound": "Cc1cc(C)c(C2=C(OC(=O)OC(C)C)OCC(C)(C)C2=O)c(C)c1", "note": "[Ex. I-B-c-1]", "values": [{"measurement": "Kill rate in % after 14d", "setting": "[1]", "result": 90, "unit": "%"}, {"measurement": "Kill rate in % after 7d", "setting": "[5]; 100 ppm", "result": 100, "unit": "%"}]}
{"compound": "Cc1cc(-c2ccc(Cl)cc2)cc(C)c1C1=C(O)C(C)(C)C(C)(C)OC1=O", "note": "[Ex. I-a-1]", "values": [{"measurement": "Kill rate in % after 7d", "setting": "[3]", "result": 100, "unit": "%"}]}
{"compound": "Cc1ccc(-c2ccc(Cl)cc2)cc1C1=C(O)C(C)(C)COC1=O", "note": "[Ex. I-a-5]", "values": [{"measurement": "Kill rate in % after 14d", "setting": "[1]", "result": 100, "unit": "%"}, {"measurement": "Kill rate in % after 6d", "setting": "[6]", "result": 95, "unit": "%"}, {"measurement": "Kill rate in % after 7d", "setting": "[3]", "result": 100, "unit": "%"}]}
{"compound": "Cc1ccc(-c2ccc(Cl)cc2)cc1C1=C(O)C(C)(C)C(C)(C)OC1=O", "note": "[Ex. I-a-6]", "values": [{"measurement": "Kill rate in % after 6d", "setting": "[6]", "result": 95, "unit": "%"}, {"measurement": "Kill rate in % after 14d", "setting": "[7]", "result": 100, "unit": "%"}, {"measurement": "Kill rate in % after 7d", "setting": "[3]", "result": 100, "unit": "%"}, {"measurement": "Kill rate in % after 7d", "setting": "[4]", "result": 100, "unit": "%"}, {"measurement": "Kill rate in % after 7d", "setting": "[5]; 100 ppm", "result": 100, "unit": "%"}]}
{"compound": "Cc1cc(C)c(C2=C(O)C(C)(C)C(C)(C)OC2=O)c(C)c1", "note": "[Ex. I-a-7]", "values": [{"measurement": "Kill rate in % after 6d", "setting": "[6]", "result": 90, "unit": "%"}, {"measurement": "Kill rate in % at active compound concentration in ppm", "setting": "[8]", "result": 20, "unit": "ppm = 100%"}]}
{"compound": "Cc1cc(-c2ccc(Cl)cc2)cc(C)c1C1=C(O)C(C)(C)COC1=O", "note": "[Ex. I-a-13]", "values": [{"measurement": "Kill rate in % after 7d", "setting": "[3]", "result": 100, "unit": "%"}]}
